From PMC6627486, “Ipomoeassin F Binds Sec61α to Inhibit Protein Translocation” (Journal of the American Chemical Society, 2019)
Where two headings read alike, the source gives them in different places.

Tests used:
Sec61α = molecular target: T1, Sec61α (Homo sapiens, UniProt P61619); test: Live cell-based biotin affinity pulldown in MDA-MB-231 cells; type: binding; conditions: live MDA-MB-231 cells
T1 construct: enabling a biotin analogue of ipomoeassin F to pull down Sec61α from live cells; endogenous in cells; host or cells: MDA-MB-231
T1 sequence (P60468 whole entry): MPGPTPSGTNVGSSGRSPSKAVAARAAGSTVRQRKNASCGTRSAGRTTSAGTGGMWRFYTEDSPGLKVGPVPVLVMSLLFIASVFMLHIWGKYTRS
T1 sequence (P60059 whole entry, further chain): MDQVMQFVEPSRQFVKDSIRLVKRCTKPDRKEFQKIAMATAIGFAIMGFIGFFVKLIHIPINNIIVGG
T1 sequence (P61619 whole entry): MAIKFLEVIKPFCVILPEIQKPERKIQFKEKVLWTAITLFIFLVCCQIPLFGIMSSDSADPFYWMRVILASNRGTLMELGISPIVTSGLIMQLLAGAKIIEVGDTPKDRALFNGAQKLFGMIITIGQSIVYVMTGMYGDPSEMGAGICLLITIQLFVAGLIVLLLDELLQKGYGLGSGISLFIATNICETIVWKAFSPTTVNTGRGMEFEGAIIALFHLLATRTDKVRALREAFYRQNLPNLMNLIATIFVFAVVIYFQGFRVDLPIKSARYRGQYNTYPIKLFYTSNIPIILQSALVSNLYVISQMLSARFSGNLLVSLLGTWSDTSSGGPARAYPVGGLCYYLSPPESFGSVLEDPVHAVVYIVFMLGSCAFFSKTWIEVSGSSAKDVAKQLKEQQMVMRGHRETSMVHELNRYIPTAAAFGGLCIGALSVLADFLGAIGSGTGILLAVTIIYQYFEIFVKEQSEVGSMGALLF
Experimental: Activity Based Protein Profiling
MDA-MB-231 cells were seeded in five groups of 6 cm petri dishes with 3 ml DMEM high glucose culture and incubated at 37 °C and 5% CO2 until 90% confluency. […]
After 1 h incubation at 37 °C […]
and 5% CO2, the cells were harvested by scraping and washed with cold PBS for 3 times. The cells were then lysed in 100 µl of lysis buffer 1 (50 mM Hepes, pH 9.0, 100 mM NaCl, 10% glycerol, 5 mM MgCl2, 1 mM CaCl2, 0.2% NP40, 1x protease inhibitor) using ultrasound sonication. The supernatant of each group was collected after centrifugation at 21,100 g and 4 °C for 10 min, and the protein concentration was quantified with a BCA kit. 10% SDS was then added into protein solution to make a final SDS concentration of 0.4%, and the solution was incubated at 95 °C for 5 min. […]
According to the experimental needs, MDA-MB-231 cells were seeded into 3-7 groups of 15-cm tissue-culture dishes and incubated at 37 °C and 5% CO2 until 90% confluency. […] The supernatant of each group was collected after centrifugation at 4 °C and 21,100 g for 10 min, and the protein concentration was quantified with the BCA kit. […]
rotation. […] The other part was analyzed by Western blotting, in which proteins on the nitrocellulose membrane were visualized by either fluorescently labeled streptavidin or an anti-Sec61α antibody. […]

MDA-MB-231 = test: AlamarBlue cytotoxicity assay, MDA-MB-231; type: cell-based, human; conditions: Homo sapiens, MDA-MB-231, 72 h, read-out: Cytotoxicity (IC50)
Experimental: AlamarBlue Cytotoxicity Assay
MDA-MB-231, MCF-10A and HCT116. Viable cells were counted with a hemocytometer immediately before each experiment . Experiments were done in triplicate. First, 100 μL of MDA-MB-231 cells or MCF-10A cells at the density of 50,000 cells/mL was seeded in a 96-well plate (5,000 cells/well) and then incubated at 37 °C and 5% CO2 for 24 h. The compounds were dissolved in DMSO (dimethyl sulfoxide) to make drug stocks (10 mM). The stock solutions were diluted with the complete DMEM high glucose culture medium to make a series of gradient fresh working solutions right before each test. Subsequently, the cells were treated with 100 μL of the freshly made gradient working solution in a total volume of 200 μL/well for 72 h. After that, the media were discarded and 200 μL of the fresh complete medium containing 10% of AlamarBlue (resazurin) stock solution was added to each well. The plate was then incubated at 37 °C and 5% CO2 for another 3 h. Emission of each well at 620 nm was detected by a microplate reader (BioTek Synergy H1) at excitation 580 nm. […]
Microplate Reader. The percentage of viability compared to the negative control (DMSO-treated cells) […]
was determined. […]

SMILES	competition with probe 7 in pulldown of ∼40 kDa protein (Sec61α; 10 nM 7 + 50 nM ipomoeassin F, 20 nM 7 + 1 μM 8)	IC50 (MDA-MB-231)	recovery of ∼40 kDa protein (Sec61α) by biotin probe in streptavidin pulldown (Sec61α; 9 at 500 nM)	IC50 (MDA-MB-231; AlamarBlue)
C/C=C(\C)C(=O)O[C@@H]1[C@@H](O)[C@@H]2O[C@H]3[C@H](O[C@@H](CCCCC)CCCCCCC(=O)CCC(=O)OC[C@@H](O2)[C@H]1OC(=O)/C=C/c1ccccc1)O[C@H](C)[C@H](OC(C)=O)[C@@H]3O [ipomoeassin F]	outcompeted by a 5-fold excess	6.3 nM		
C/C=C(\C)C(=O)O[C@H]1[C@H](OC(=O)/C=C/c2ccc(OCc3cn(CCOCCOCCOCCNC(=O)CCCC[C@@H]4SC[C@@H]5NC(=O)N[C@@H]54)nn3)cc2)[C@@H](O)[C@@H]2O[C@H]3[C@H](O[C@@H](CCCCC)CCCCCCC(=O)CCC(=O)OC[C@H]1O2)O[C@H](C)[C@H](OC(C)=O)[C@@H]3O [compound 5]			no proteins were selectively enriched	29.5 nM
